From publication PMC12892976, “Alkylation-based optimization of antifungal FPPS inhibitors yields a potent, broad-spectrum lipophilic zoledronate derivative” (mBio, 2025)
Converted amounts (≈) assume the structure as drawn. Where two headings read alike, the source gives them in different places.

Key:
eight fungal species [1] = experiment: checkerboard interaction with azoles, summary across the eight species; format: cell-based; conditions: geometric mean MIC in combination with azoles
Text: Synergy between lipophilic FPPS inhibitors and azole antifungals was investigated by determining the fractional inhibitory concentration index (FICI) (Fig. 2; Table S1 Fig. S1) ([17]). […]. Derivatives PLA9 and 11, and PDA9, 11, and 12 antagonized azoles in C. albicans, C. neoformans, and C. deuterogattii, yet were largely synergistic in C. glabrata and S. cerevisiae. […].

eight fungal species [2] = experiment: MIC/MFC summary across the eight fungal species of Table 1; format: cell-based
Procedure: The antifungal activity of these compounds was evaluated according to CLSI guidelines ([16]).

Aspergillus fumigatus [3] = experiment: checkerboard drug interaction (FICI, MICc); format: cell-based;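 note: simplified diagonal checkerboard screen pairing antifungals with FPPS inhibitors against Aspergillus fumigatus, with FICI calculated under the Loewe additivity model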
Procedure: (§1) Drug interactions between antifungals and FPPS inhibitors were investigated using a simplified checkerboard diagonal screening method ([45]). […] FICIs were determined according to the Loewe additivity model ([17]).

Candida albicans [4] = experiment: checkerboard drug interaction (FICI, MICc);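 for all read-outs here: antifungal plus FPPS inhibitor combinations on Candida albicans tested by a simplified diagonal checkerboard screen, with FICI calculated under the Loewe additivity model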; format: cell-based; conditions: C. albicans; for INH FD (MIC-MICc fold decrease): fold decrease of inhibitor MIC
Procedure: as §1

Candida glabrata [5] = experiment: checkerboard drug interaction (FICI, MICc);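 for all read-outs here: simplified diagonal checkerboard screen pairing antifungals with FPPS inhibitors, FICI calculated under the Loewe additivity model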; format: cell-based; conditions: C. glabrata; for INH FD (MIC-MICc fold decrease): fold decrease of inhibitor MIC
Procedure: as §1

Cryptococcus neoformans [6] = experiment: checkerboard drug interaction (FICI, MICc);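 for all read-outs here: antifungal plus FPPS inhibitor pairs tested against Cryptococcus neoformans by simplified diagonal checkerboard screening, FICI computed under the Loewe additivity model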; format: cell-based; conditions: C. neoformans; for INH FD (MIC-MICc fold decrease): fold decrease of inhibitor MIC
Procedure: as §1

Aspergillus flavus [7] = experiment: MIC/MFC broth microdilution (CLSI); conditions: ATCC204304
Procedure: (§2) Antifungal susceptibility was determined by broth microdilution according to the CLSI guidelines described in M27-Ed4 ([16]). […] MFC was determined by back-plating drug-treated cultures from MIC broths onto SDA plates. The MFC was defined as the lowest concentration from which no colonies could be cultured.

[8] = tested on: Cryptococcus deuterogattii; experiment: MIC/MFC broth microdilution (CLSI); conditions: Cryptococcus deuterogattii;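 note: broth microdilution per CLSI M27-Ed4. MFC is the lowest concentration yielding no colonies when MIC broths are subcultured onto SDA plates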
Procedure: as §2

Aspergillus flavus [9] = experiment: checkerboard drug interaction (FICI, MICc);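 note: simplified diagonal checkerboard screen pairing azole antifungals with FPPS inhibitors, FICI calculated under the Loewe additivity model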; format: cell-based; parameters: INH MICc (KET:INH) / INH MICc (FLC:INH): unit not given beside the values; conditions: A. flavus
Candida albicans [10] = experiment: MIC/MFC broth microdilution (CLSI); format: cell-based; conditions: Candida albicans SC5314
Procedure: as §2

Trichophyton rubrum [11] = experiment: checkerboard drug interaction (FICI, MICc);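 note: simplified diagonal checkerboard screen pairing azole antifungals with FPPS inhibitors, FICI calculated under the Loewe additivity model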; format: cell-based; conditions: T. rubrum
Procedure: as §1

Candida glabrata [12] = experiment: MIC/MFC broth microdilution (CLSI); conditions: Nakaseomyces glabratus, CBS138;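 note: broth microdilution following CLSI M27-Ed4, MFC taken as the lowest drug level yielding no growth once MIC wells were subcultured on SDA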
Procedure: as §2

Cryptococcus neoformans [13] = experiment: MIC/MFC broth microdilution (CLSI); conditions: Cryptococcus neoformans;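 note: susceptibility testing followed the CLSI M27-Ed4 broth microdilution document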
Procedure: as §2

[14] = tested on: Cryptococcus deuterogattii; experiment: checkerboard drug interaction (FICI, MICc);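 for all read-outs here: simplified diagonal checkerboard screen pairing antifungal drugs with FPPS inhibitors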; format: cell-based; conditions: C. deuterogattii; for INH FD (MIC-MICc fold decrease): fold decrease of inhibitor MIC
Procedure: as §1

HEK-293T cells = experiment: MTT reduction cytotoxicity assay; format: cell-based; conditions: Homo sapiens, HEK-293T, 72 h, MTT, 72 h
Saccharomyces cerevisiae [15] = experiment: MIC/MFC broth microdilution (CLSI); format: cell-based; conditions: Saccharomyces cerevisiae S288c
Procedure: as §2

Aspergillus fumigatus [16] = experiment: MIC/MFC broth microdilution (CLSI); conditions: ATCC204305
Procedure: as §2

Trichophyton rubrum [17] = experiment: MIC/MFC broth microdilution (CLSI); conditions: Trichophyton rubrum
Procedure: as §2

Saccharomyces cerevisiae [18] = experiment: checkerboard drug interaction (FICI, MICc); format: cell-based; parameters: INH MICc / INH MICc (ITR:INH) / INH MICc (KET:INH) / INH MICc (FLC:INH): unit not given beside the values;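 note: simplified diagonal checkerboard screen pairing antifungals with FPPS inhibitors, FICI calculated under the Loewe additivity model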
[19] = Fractional Inhibitory Concentration Index, fluconazole + inhibitor
[20] = Fractional Inhibitory Concentration Index, itraconazole + inhibitor
[21] = Fractional Inhibitory Concentration Index, ketoconazole + inhibitor
[22] = MIC of the inhibitor in combination with fluconazole
[23] = MIC of the inhibitor in combination with itraconazole
[24] = MIC of the inhibitor in combination with ketoconazole
[25] = MIC-MICc fold decrease of fluconazole, negative = increase
[26] = MIC-MICc fold decrease of itraconazole, negative = increase
[27] = MIC-MICc fold decrease of ketoconazole, negative = increase
[28] = MIC-MICc fold decrease of the inhibitor, with fluconazole
[29] = MIC-MICc fold decrease of the inhibitor, with itraconazole
[30] = MIC-MICc fold decrease of the inhibitor, with ketoconazole
[31] = FLC:INH combination, MIC of the inhibitor in combination with FLC
[32] = FLC:INH combination, fold decrease of FLC MIC
[33] = ITR:INH combination, MIC of the inhibitor in combination with ITR
[34] = ITR:INH combination, fold decrease of ITR MIC
[35] = KET:INH combination, MIC of the inhibitor in combination with KET
[36] = KET:INH combination, fold decrease of KET MIC

Structure (SMILES): CCCCCCCCCCCCN1CCC[C@H]1C(=O)N[C@H](CC(=O)OC)C(=O)OC [dmPDA12]
- GM fungal MICc (eight fungal species [1]): 12
- MFC (eight fungal species [2]; across eight species, read-out: Geometric mean MFC): 140 µg/mL (≈ 327 µM)
- MIC (eight fungal species [2]; geometric mean across eight species, read-out: GM fungal MIC): 49.4 µg/mL (≈ 116 µM)
- MIC (eight fungal species [2]; read-out: Geometric mean MIC): 49.4 µg/mL (≈ 116 µM)
- FICI (FLC:INH) (Aspergillus fumigatus [3]; [19]): 1.5
- FICI (ITR:INH) (Aspergillus fumigatus [3]; [20]): 0.26
- FICI (KET:INH) (Aspergillus fumigatus [3]; [21]): 2
- INH MICc (FLC:INH) (Aspergillus fumigatus [3]; [22]): 128
- INH MICc (ITR:INH) (Aspergillus fumigatus [3]; [23]): 1
- INH MICc (KET:INH) (Aspergillus fumigatus [3]; [24]): 128
- FLC FD (FLC:INH) (Aspergillus fumigatus [3]; [25]): 2
- ITR FD (ITR:INH) (Aspergillus fumigatus [3]; [26]): 4
- KET FD (KET:INH) (Aspergillus fumigatus [3]; [27]): 1
- INH FD (FLC:INH) (Aspergillus fumigatus [3]; [28]): 1
- INH FD (ITR:INH) (Aspergillus fumigatus [3]; [29]): 128
- INH FD (KET:INH) (Aspergillus fumigatus [3]; [30]): 1
- FICI (Candida albicans [4]; FLC:INH combination): 1.06
- INH MICc (Candida albicans [4]; [31]): 8
- FLC FD (MIC-MICc fold decrease) (Candida albicans [4]; [32]): 1
- INH FD (MIC-MICc fold decrease) (Candida albicans [4]; FLC:INH combination): 16
- FICI (Candida albicans [4]; ITR:INH combination): 0.53
- INH MICc (Candida albicans [4]; [33]): 4
- ITR FD (MIC-MICc fold decrease) (Candida albicans [4]; [34]): 2
- INH FD (MIC-MICc fold decrease) (Candida albicans [4]; ITR:INH combination): 32
- FICI (Candida albicans [4]; KET:INH combination): 0.53
- INH MICc (Candida albicans [4]; [35]): 4
- KET FD (MIC-MICc fold decrease) (Candida albicans [4]; [36]): 2
- INH FD (MIC-MICc fold decrease) (Candida albicans [4]; KET:INH combination): 32
- FICI (Candida glabrata [5]; FLC:INH combination): 2.5
- INH MICc (Candida glabrata [5]; [31]): 8
- FLC FD (MIC-MICc fold decrease) (Candida glabrata [5]; [32]): 2
- INH FD (MIC-MICc fold decrease) (Candida glabrata [5]; FLC:INH combination): 1
- FICI (Candida glabrata [5]; ITR:INH combination): 1.5
- INH MICc (Candida glabrata [5]; [33]): 4
- ITR FD (MIC-MICc fold decrease) (Candida glabrata [5]; [34]): 2
- INH FD (MIC-MICc fold decrease) (Candida glabrata [5]; ITR:INH combination): 2
- FICI (Candida glabrata [5]; KET:INH combination): 0.38
- INH MICc (Candida glabrata [5]; [35]): 1
- KET FD (MIC-MICc fold decrease) (Candida glabrata [5]; [36]): 8
- INH FD (MIC-MICc fold decrease) (Candida glabrata [5]; KET:INH combination): 8
- FICI (Cryptococcus neoformans [6]; FLC:INH combination): 1.25
- INH MICc (Cryptococcus neoformans [6]; [31]): 8
- FLC FD (MIC-MICc fold decrease) (Cryptococcus neoformans [6]; [32]): 4
- INH FD (MIC-MICc fold decrease) (Cryptococcus neoformans [6]; FLC:INH combination): 1
- FICI (Cryptococcus neoformans [6]; ITR:INH combination): 1.25
- INH MICc (Cryptococcus neoformans [6]; [33]): 8
- ITR FD (MIC-MICc fold decrease) (Cryptococcus neoformans [6]; [34]): 4
- INH FD (MIC-MICc fold decrease) (Cryptococcus neoformans [6]; ITR:INH combination): 1
- FICI (Cryptococcus neoformans [6]; KET:INH combination): 1.25
- INH MICc (Cryptococcus neoformans [6]; [35]): 8
- KET FD (MIC-MICc fold decrease) (Cryptococcus neoformans [6]; [36]): 4
- INH FD (MIC-MICc fold decrease) (Cryptococcus neoformans [6]; KET:INH combination): 1
- MFC (Aspergillus flavus [7]): > 128 µg/mL
- MIC (Aspergillus flavus [7]): > 128 µg/mL
- MFC [8]: 32 µg/mL (≈ 75 µM)
- MIC [8]: 8 µg/mL (≈ 18.8 µM)
- FICI (FLC:INH) (Aspergillus flavus [9]; [19]): 1.5
- FICI (ITR:INH) (Aspergillus flavus [9]; [20]): 0.28
- FICI (KET:INH) (Aspergillus flavus [9]; [21]): 0.27
- INH MICc (FLC:INH) (Aspergillus flavus [9]; [22]): 128
- INH MICc (ITR:INH) (Aspergillus flavus [9]; [23]): 8
- INH MICc (KET:INH) (Aspergillus flavus [9]; [24]): 4
- FLC FD (FLC:INH) (Aspergillus flavus [9]; [25]): 1
- ITR FD (ITR:INH) (Aspergillus flavus [9]; [26]): 4
- KET FD (KET:INH) (Aspergillus flavus [9]; [27]): 4
- INH FD (FLC:INH) (Aspergillus flavus [9]; [28]): 2
- INH FD (ITR:INH) (Aspergillus flavus [9]; [29]): 32
- INH FD (KET:INH) (Aspergillus flavus [9]; [30]): 64
- MFC (Candida albicans [10]): > 128 µg/mL
- MIC (Candida albicans [10]): > 128 µg/mL
- FICI (FLC:INH) (Trichophyton rubrum [11]; [19]): ≥4
- FICI (ITR:INH) (Trichophyton rubrum [11]; [20]): ≥4
- FICI (KET:INH) (Trichophyton rubrum [11]; [21]): ≥4
- INH MICc (FLC:INH) (Trichophyton rubrum [11]; [22]): 32
- INH MICc (ITR:INH) (Trichophyton rubrum [11]; [23]): 32
- INH MICc (KET:INH) (Trichophyton rubrum [11]; [24]): 32
- FLC FD (FLC:INH) (Trichophyton rubrum [11]; [25]): -2
- ITR FD (ITR:INH) (Trichophyton rubrum [11]; [26]): 8
- KET FD (KET:INH) (Trichophyton rubrum [11]; [27]): 4
- INH FD (FLC:INH) (Trichophyton rubrum [11]; [28]): -4
- INH FD (ITR:INH) (Trichophyton rubrum [11]; [29]): -4
- INH FD (KET:INH) (Trichophyton rubrum [11]; [30]): -4
- MFC (Candida glabrata [12]): 128 µg/mL (≈ 300 µM)
- MIC (Candida glabrata [12]): 128 µg/mL (≈ 300 µM)
- MFC (Cryptococcus neoformans [13]): 32 µg/mL (≈ 75 µM)
- MIC (Cryptococcus neoformans [13]): 8 µg/mL (≈ 18.8 µM)
- FICI ([14]; FLC:INH combination): 2
- INH MICc [14, 31]: 64
- FLC FD (MIC-MICc fold decrease) [14, 32]: 1
- INH FD (MIC-MICc fold decrease) ([14]; FLC:INH combination): 1
- FICI ([14]; ITR:INH combination): 0.38
- INH MICc [14, 33]: 8
- ITR FD (MIC-MICc fold decrease) [14, 34]: 4
- INH FD (MIC-MICc fold decrease) ([14]; ITR:INH combination): 8
- FICI ([14]; KET:INH combination): 0.16
- INH MICc [14, 35]: 8
- KET FD (MIC-MICc fold decrease) [14, 36]: 32
- INH FD (MIC-MICc fold decrease) ([14]; KET:INH combination): 8
- IC50 (HEK-293T cells; HEK-293T cells, read-out: IC50): 0.161 µg/mL (≈ 0.377 µM)
- IC50 (HEK-293T cells; read-out: HEK IC50): 0.161 µg/mL (≈ 0.377 µM)
- MFC (Saccharomyces cerevisiae [15]): > 128 µg/mL
- MIC (Saccharomyces cerevisiae [15]): 64 µg/mL (≈ 150 µM)
- MFC (Aspergillus fumigatus [16]): > 128 µg/mL
- MIC (Aspergillus fumigatus [16]): 128 µg/mL (≈ 300 µM)
- MFC (Trichophyton rubrum [17]): > 128 µg/mL
- MIC (Trichophyton rubrum [17]): 8 µg/mL (≈ 18.8 µM)
- FICI (FLC:INH) (Saccharomyces cerevisiae [18]; [19]): 0.75
- FICI (ITR:INH) (Saccharomyces cerevisiae [18]; [20]): 1.06
- FICI (KET:INH) (Saccharomyces cerevisiae [18]; [21]): 0.56
- INH MICc (FLC:INH) (Saccharomyces cerevisiae [18]; [22]): 32
- INH MICc (ITR:INH) (Saccharomyces cerevisiae [18]; [23]): 4
- INH MICc (KET:INH) (Saccharomyces cerevisiae [18]; [24]): 32
- FLC FD (FLC:INH) (Saccharomyces cerevisiae [18]; [25]): 4
- ITR FD (ITR:INH) (Saccharomyces cerevisiae [18]; [26]): 1
- KET FD (KET:INH) (Saccharomyces cerevisiae [18]; [27]): 16
- INH FD (FLC:INH) (Saccharomyces cerevisiae [18]; [28]): 2
- INH FD (ITR:INH) (Saccharomyces cerevisiae [18]; [29]): 16
- INH FD (KET:INH) (Saccharomyces cerevisiae [18]; [30]): 2
